pKd: −log10 of the molar value. Where only a bound is given, the exact number is not on record here.

In general, pKd refers to −log10 of the Kd, conventionally taken in molar units. Read a high pKd as a low Kd.

The experiment addresses JAK2 (JH1 domain-catalytic, Y1007F, Y1008F) kinase (Homo sapiens (Human), UniProt O60674, Y1007F/Y1008F). As to the kind of experiment: JAK2 JH1 Domain Binding Assay. The note with it: qPCR readout. In a few lines:
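Competitive binding format: test compound, DNA-tagged JAK2 JH1 (Y1007F/Y1008F; HEK293-expressed NFkB fusion) and ligand-coated magnetic beads incubated 1 h at room temperature. Kinase retained on beads released with 0.5 μmol/L non-biotinylated ligand, then measured by qPCR.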

Sequence of JAK2 (JH1 domain-catalytic, Y1007F, Y1008F) kinase (O60674 849-1124 Y1007F/Y1008F): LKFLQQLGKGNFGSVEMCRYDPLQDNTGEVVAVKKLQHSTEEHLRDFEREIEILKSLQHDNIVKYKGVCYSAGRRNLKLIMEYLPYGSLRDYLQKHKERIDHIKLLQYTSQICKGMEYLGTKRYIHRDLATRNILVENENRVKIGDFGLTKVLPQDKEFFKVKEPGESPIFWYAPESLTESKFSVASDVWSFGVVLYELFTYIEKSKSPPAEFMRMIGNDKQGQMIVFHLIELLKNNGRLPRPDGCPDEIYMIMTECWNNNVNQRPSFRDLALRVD

Molecule `CN(C(=O)Nc1cc(C(F)(F)F)cn(C)c1=O)C1CCN(c2cnc3[nH]cc(F)c3n2)CC1` [Example I-39, 1-(1-(7-fluoro-5H-pyrrolo[2,3-b]pyrazin-2-yl)piperidin-4-yl)-1-methyl-3-(1-methyl-2-oxo-5-(trifluoromethyl)-1,2-dihydropyridin-3-yl)urea] had a pKd of more than 8.00. Then `COc1n[nH]c2ncc(N3CC[C@H](N(C)C(=O)Nc4cc(C(F)(F)F)cn(C)c4=O)C[C@@H]3C)cc12` [Example I-133-a, 1-((2S,4S)-1-(3-methoxy-1H-pyrazolo[3,4-b]pyridin-5-yl)-2-methylpiperidin-4-yl)-1-methyl-3-(1-methyl-2-oxo-5-(trifluoromethyl)-1,2-dihydropyridin-3-yl)urea], with more than 8.00; and `CN(C(=O)Nc1cc(C(F)(F)F)cn(C)c1=O)[C@@H]1C[C@@H]2C[C@H]1CN2c1cnc(NC(=O)C2CC2)cn1` (single isomer, unassigned) [Example I-44-a], with 7.30 to 8.00; and `CC(=O)Nc1cnc(N2CC[C@@H](N(C)C(=O)Nc3cc(C(F)(F)F)cn(C)c3=O)C(F)(F)C2)cn1` (single isomer, unassigned) [Example I-35-a], with more than 8.00.

Consider `CN(C(=O)Nc1cc(C(F)(F)F)cn(C)c1=O)[C@@H]1CCN(c2cnc3[nH]ncc3n2)C[C@@H]1F` [Example I-83-b, 1-((3S,4R)-3-fluoro-1-(1H-pyrazolo[3,4-b]pyrazin-5-yl)piperidin-4-yl)-1-methyl-3-(1-methyl-2-oxo-5-(trifluoromethyl)-1,2-dihydropyridin-3-yl)urea], for which the pKd is more than 8.00. The figure for `CC(=O)Nc1cnc(N2CCC(CC(=O)Nc3cc(C(F)(F)F)cn(C)c3=O)CC2)cn1` [Example I-3, 2-(1-(5-acetamidopyrazin-2-yl)piperidin-4-yl)-N-(1-methyl-2-oxo-5-(trifluoromethyl)-1,2-dihydropyridin-3-yl)acetamide] is 6.00 to 7.30. The figure for `CN(C(=O)Nc1cc(C(F)(F)F)cn(C)c1=O)[C@H]1CCN(c2cnc3[nH]nc(OC4CCOCC4)c3c2)C[C@@H]1F` [Example I-114-a, 1-((3S,4S)-3-fluoro-1-(3-((tetrahydro-2H-pyran-4-yl)oxy)-1H-pyrazolo[3,4-b]pyridin-5-yl)piperidin-4-yl)-1-methyl-3-(1-methyl-2-oxo-5-(trifluoromethyl)-1,2-dihydropyridin-3-yl)urea] is more than 8.00; for `CN(C(=O)Nc1cc(C(F)(F)F)cn(C)c1=O)C1CCN(c2cnc3[nH]ccc3c2)CC1` [Example I-21, 1-(1-(1H-pyrrolo[2,3-b]pyridin-5-yl)piperidin-4-yl)-1-methyl-3-(1-methyl-2-oxo-5-(trifluoromethyl)-1,2-dihydropyridin-3-yl)urea] it is more than 8.00; for `COCc1cc2nc(N3CC[C@@H](N(C)C(=O)Nc4cc(C(F)(F)F)cn(C)c4=O)[C@H](OC)C3)cnc2[nH]1` [Example I-113-b, 1-((3R,4R)-3-methoxy-1-(6-(methoxymethyl)-5H-pyrrolo[2,3-b]pyrazin-2-yl)piperidin-4-yl)-1-methyl-3-(1-methyl-2-oxo-5-(trifluoromethyl)-1,2-dihydropyridin-3-yl)urea] it is 5.30 to 6.00. The figure for `COc1n[nH]c2ncc(C34CC(N(C)C(=O)Nc5cc(C(F)(F)F)cn(C)c5=O)(C3)C4)cc12` [Example I-156, 1-(3-(3-methoxy-1H-pyrazolo[3,4-b]pyridin-5-yl)bicyclo[1.1.1]pentan-1-yl)-1-methyl-3-(1-methyl-2-oxo-5-(trifluoromethyl)-1,2-dihydropyridin-3-yl)urea] is more than 8.00. Regarding `CN(C(=O)Nc1cc(C(F)(F)F)cn(C)c1=O)[C@H]1CCN(c2cnc3[nH]ncc3c2)CC1(F)F` [Example I-29-b, (S)-1-(3,3-difluoro-1-(1H-pyrazolo[3,4-b]pyridin-5-yl)piperidin-4-yl)-1-methyl-3-(1-methyl-2-oxo-5-(trifluoromethyl)-1,2-dihydropyridin-3-yl)urea], the pKd was more than 8.00. The figure for `CC(=O)Nc1c[nH]c2ncc(N3CC[C@@H](N(C)C(=O)Nc4cc(C(F)(F)F)cn(C)c4=O)C(F)(F)C3)cc12` (mixture of isomers) [Example I-172-a, (R)—N-(5-(3,3-difluoro-4-(1-methyl-3-(1-methyl-2-oxo-5-(trifluoromethyl)-1,2-dihydropyridin-3-yl)ureido)piperidin-1-yl)-1H-pyrrolo[2,3-b]pyridin-3-yl)acetamide and (S)—N-(5-(3,3-difluoro-4-(1-methyl-3-(1-methyl-2-oxo-5-(trifluoromethyl)-1,2-dihydropyridin-3-yl)ureido)piperidin-1-yl)-1H-pyrrolo[2,3-b]pyridin-3-yl)acetamide] is more than 8.00. `CN(C(=O)Nc1cc(C(F)(F)F)cn(C)c1=O)C1CCN(c2cnc3[nH]c(C4CC4)cc3n2)CC1` [Example I-25, 1-(1-(6-cyclopropyl-5H-pyrrolo[2,3-b]pyrazin-2-yl)piperidin-4-yl)-1-methyl-3-(1-methyl-2-oxo-5-(trifluoromethyl)-1,2-dihydropyridin-3-yl)urea] showed a pKd of more than 8.00. As to `CN(C(=O)Nc1cc(C(F)(F)F)cn(C)c1=O)[C@@H]1CCN(c2cnc3[nH]ncc3c2)C[C@H]1OC(F)F.CN(C(=O)Nc1cc(C(F)(F)F)cn(C)c1=O)[C@H]1CCN(c2cnc3[nH]ncc3c2)C[C@@H]1OC(F)F` (mixture of isomers) [Example I-167-a, 1-((3S,4S)-3-(difluoromethoxy)-1-(1H-pyrazolo[3,4-b]pyridin-5-yl)piperidin-4-yl)-1-methyl-3-(1-methyl-2-oxo-5-(trifluoromethyl)-1,2-dihydropyridin-3-yl)urea and 1-((3R,4R)-3-(difluoromethoxy)-1-(1H-pyrazolo[3,4-b]pyridin-5-yl)piperidin-4-yl)-1-methyl-3-(1-methyl-2-oxo-5-(trifluoromethyl)-1,2-dihydropyridin-3-yl)urea], the pKd was 6.00 to 7.30.

Consider `COCc1cc2nc(N3CC[C@H](N(C)C(=O)Nc4cc(C(F)(F)F)cn(C)c4=O)C[C@@H]3C)cnc2[nH]1` [Example I-127-a, 1-((2S,4S)-1-(6-(methoxymethyl)-5H-pyrrolo[2,3-b]pyrazin-2-yl)-2-methylpiperidin-4-yl)-1-methyl-3-(1-methyl-2-oxo-5-(trifluoromethyl)-1,2-dihydropyridin-3-yl)urea], for which the pKd was 6.00 to 7.30. The figure for `CN(C(=O)Nc1cc(C(F)(F)F)cn(C)c1=O)[C@H]1CCN(c2cnc3[nH]ccc3n2)C[C@@H]1F` (single isomer, unassigned) [Example I-63-b] is more than 8.00. Molecule `CCN1CCN(Cc2ccc(NC(=O)N(C)C3CCN(c4cnc5[nH]nc(OC)c5c4)CC3)cc2C(F)(F)F)CC1` [Example I-182, 3-(4-((4-ethylpiperazin-1-yl)methyl)-3-(trifluoromethyl)phenyl)-1-(1-(3-methoxy-1H-pyrazolo[3,4-b]pyridin-5-yl)piperidin-4-yl)-1-methylurea] showed a pKd of more than 8.00.

`CN(C(=O)Nc1cc(C(F)(F)F)cn(C)c1=O)C1CCN(c2cnc3sncc3c2)CC1` [Example I-66, 1-(1-(isothiazolo[5,4-b]pyridin-5-yl)piperidin-4-yl)-1-methyl-3-(1-methyl-2-oxo-5-(trifluoromethyl)-1,2-dihydropyridin-3-yl)urea] had a pKd of more than 8.00.

`Cc1cc(NC(=O)N(C)C2CCN(c3cnc4[nH]ncc4c3)CC2)cc(C(F)(F)F)c1` [Example I-17, 1-(1-(1H-pyrazolo[3,4-b]pyridin-5-yl)piperidin-4-yl)-1-methyl-3-(3-methyl-5-(trifluoromethyl)phenyl)urea]: the pKd was more than 8.00.

For the molecule `CO[C@H]1CN(c2cnc3[nH]ncc3c2)CC[C@@H]1N(C)C(=O)Nc1cc(C(F)(F)F)cn(C)c1=O` [Example I-109-b, 1-((3S,4S)-3-methoxy-1-(1H-pyrazolo[3,4-b]pyridin-5-yl)piperidin-4-yl)-1-methyl-3-(1-methyl-2-oxo-5-(trifluoromethyl)-1,2-dihydropyridin-3-yl)urea], the pKd is 7.30 to 8.00. The figure for `CN(C(=O)Nc1cc(C(F)(F)F)cn(C)c1=O)[C@@H]1CCN(c2cnc3[nH]ncc3c2)CC1(F)F` [Example I-29-a, (R)-1-(3,3-difluoro-1-(1H-pyrazolo[3,4-b]pyridin-5-yl)piperidin-4-yl)-1-methyl-3-(1-methyl-2-oxo-5-(trifluoromethyl)-1,2-dihydropyridin-3-yl)urea] is more than 8.00; for `CO[C@@H]1CN(c2cnc3[nH]ncc3c2)CC[C@@H]1N(C)C(=O)Nc1cc(C(F)(F)F)cn(C)c1=O` [Example I-88-b, 1-((3R,4S)-3-methoxy-1-(1H-pyrazolo[3,4-b]pyridin-5-yl)piperidin-4-yl)-1-methyl-3-(1-methyl-2-oxo-5-(trifluoromethyl)-1,2-dihydropyridin-3-yl)urea] it is more than 8.00; for `CNc1n[nH]c2ncc(N3CCC(N(C)C(=O)Nc4cc(C(F)(F)F)cn(C)c4=O)CC3)cc12` [Example I-99, 1-methyl-3-(1-methyl-2-oxo-5-(trifluoromethyl)-1,2-dihydropyridin-3-yl)-1-(1-(3-(methylamino)-1H-pyrazolo[3,4-b]pyridin-5-yl)piperidin-4-yl)urea] it is more than 8.00. Then `CN(C(=O)Nc1cc(C(F)(F)F)cn(C)c1=O)[C@H]1[C@@H]2CC[C@H]1CN(c1cnc3[nH]ncc3c1)C2` [Example I-80, 1-(3-(1H-pyrazolo[3,4-b]pyridin-5-yl)-3-azabicyclo[3.2.1]octan-8-yl)-1-methyl-3-(1-methyl-2-oxo-5-(trifluoromethyl)-1,2-dihydropyridin-3-yl)urea], with 7.30 to 8.00; and `CN(C(=O)Nc1cc(C(F)(F)F)cn(C)c1=O)[C@H]1CC=C(c2cnc3[nH]ncc3n2)CC1` (single isomer, unassigned) [Example I-160-b, (S)- or (R)-1-(4-(1H-pyrazolo[3,4-b]pyrain-5-yl)cyclohex-3-en-1-yl)-1-methyl-3-(2-methyl-2-oxo-5-(trifluoromethyl)-1,2-dihydropyridin-3-yl)urea], with more than 8.00.
